# Source: patent publication US7521540B2, “CYR61 compositions and methods” (Munin Corporation, priority 1996, dated 2009)
# Legend:
# platelets = experiment: Platelet adhesion assay; assay type: cell-based, human
# Experimental: Microtiter wells were coated with purified recombinant Fisp12/mCTGF or Cyr61, and the adhesion of isolated platelets to these proteins was detected with ^125I-mAb15, an anti-β3 monoclonal antibody (Frelinger et al., J. Biol. Chem 265:6346-6352 [1990]). Platelets were obtained from venous blood drawn from healthy donors and collected into acid-citrate-dextrose (ACD). Washed platelets were prepared by diffenential centrifugation as described (Kinlough-Rathbone et al. Thromb. Haemostas 2:291-308 [1997]), and finally resuspended in HEPES-Tyrode's buffer (5 mM HEPES, pH 7.35, 1 mM MgCl2, 1 mM CaCl2, 135 mM NaCl, 2.7 mM KCl, 11.9 mM NaHCO3, 1 mg/ml dextrose and 3.5 mg/ml BSA). The platelet concentration was adjusted to […].
# Microtiter wells (Immulon 2 removawell strips, Dynex Technologies, Inc.) were coated with Cyr61, Fisp12/mCTGF, or fibrinogen (25 μg/ml, 50 μl/well) incubated overnight at 22° C., and then blocked with 3% BSA at 37° C. for 2 hours. Washed platelets were added to the wells (100 μl/well) in the presence and absence of platelet agonists and incubated at 37° C. for 30 minutes. The wells were washed with HEPES-Tyrode's buffer and adherent platelets were detected with ^125I-mAb15, an anti-β3 monoclonal antibody. Exposure to the labeled antibody ([…], 50 μl/well) proceeded for 1 hour at 22° C. After extensive washing with HEPES-Tyrode's buffer, bound radioactivity was determined by γ-counting. In inhibition studies, washed platelets were pre-incubated with blocking peptides or antibodies at 37° C. for 15 minutes prior to addition to microtiter wells.
# The anti-β3 antibody was radioiodinated with carrier-free Na^125I (Amersham Corp.) using the IODO-BEADS iodination reagent (Pierce) to a specific activity of approximately 2 μCi/μg. […] As controls, BSA- and fibrinogen-coated (KabiVitrum Inc.) wells were also used. Initially, the adhesion of unactivated versus activated platelets to immobilized Fisp12/mCTGF and Cyr61 was compared. To ensure that plateltes were not activated during the washing procedures, PGl2 (100 nM), which inhibits activation by raising platelet cAMP levels, was added to the platelet suspensions. […]
# αllbβ3 = target: T1, αllbβ3 (Homo sapiens, UniProt P05106+P08514); experiment: Solid-phase binding assay with purified integrin
# T1 construct: from tissue; host or cells: outdated human platelets
# Experimental: In these experiments, activated and unactivated αllbβ3 were purified from platelet lysates. Activated αllbβ3 was purified by RGD affinity chromatography, as described (Knezevic et al., J. Biol. Chem. 271:16416-16421 [1996]). Briefly, outdated human platelets were isolated by differential centrifugation and solubilized in lysis buffer (10 mM HEPES, pH 7.4, 0.15 M NaCl, containing 1 mM CaCl2, 1 mM MgCl2 100 μM leupeptin, 1 mM phenylmethylsulfonyl fluoride, 10 mM-ethylmaleimide, and 50 mM octylglucoside). The octylglucoside extract was incubated with 1 ml GRGDSPK-coupled Sepharose 4B overnight at 4° C. After washing with 15 ml column buffer (same as lysis buffer except it contained 25 mM octylglucoside), bound αllbβ3 was eluted with 1.7 mM H12 (2 ml) in column buffer. The H12 eluate was applied to a Sephacryl S-300 High Resolution column (1.5×95 cm), and αllbβ3 was eluted with 10 mM HEPES, pH 7.4, 0.15 M NaCl, 1 mM CaCl2, 1 mM MgCl2 and 25 mM octylglucoside.
# Unactivated αllbβ3 was isolated by the method of Fitzgerald et al., Anal. Biochem. 151:169-177 (1985), with slight modifications. The flow-through fraction of the GRGDSPK-Sepharose column was applied to a concanavalin A-Sepharose 4B column (1×20 cm). Unbound proteins were washed with 50 ml column buffer, and bound αllbβ3 was then eluted with 100 mM mannose dissolved in column buffer. Fractions containing αllbβ3 were further purified on a Sephacryl S-300 High Resolution column
# To perform the solid-phase binding assay, purified αllbβ3 was added to wells coated with either Cyr61 or Fisp12 (mCTGF) in the presence or absence of inhibitors and binding was allowed to proceed for 3 hours at 37° C. Unbound receptor was removed and the wells wee washed twice with HEPES-Tyrode's Buffer. The binding of purified αllbβ3 to Cyr61 or Fisp12/mCTGF immobilized onto microtiter wells was detected with ^125I-mAb15.
# αVβ3 integrin = target: T2, αVβ3 integrin (Homo sapiens, UniProt P05106+P06756); experiment: Integrin binding assay (ligand-receptor ELISA)
# T2 construct: αVβ3 integrin purification from HUVE cell lysates was done as described in Pytela et al; endogenous in cells; host or cells: HUVE cells
# T2 sequence (P06756 31-889 limits assumed): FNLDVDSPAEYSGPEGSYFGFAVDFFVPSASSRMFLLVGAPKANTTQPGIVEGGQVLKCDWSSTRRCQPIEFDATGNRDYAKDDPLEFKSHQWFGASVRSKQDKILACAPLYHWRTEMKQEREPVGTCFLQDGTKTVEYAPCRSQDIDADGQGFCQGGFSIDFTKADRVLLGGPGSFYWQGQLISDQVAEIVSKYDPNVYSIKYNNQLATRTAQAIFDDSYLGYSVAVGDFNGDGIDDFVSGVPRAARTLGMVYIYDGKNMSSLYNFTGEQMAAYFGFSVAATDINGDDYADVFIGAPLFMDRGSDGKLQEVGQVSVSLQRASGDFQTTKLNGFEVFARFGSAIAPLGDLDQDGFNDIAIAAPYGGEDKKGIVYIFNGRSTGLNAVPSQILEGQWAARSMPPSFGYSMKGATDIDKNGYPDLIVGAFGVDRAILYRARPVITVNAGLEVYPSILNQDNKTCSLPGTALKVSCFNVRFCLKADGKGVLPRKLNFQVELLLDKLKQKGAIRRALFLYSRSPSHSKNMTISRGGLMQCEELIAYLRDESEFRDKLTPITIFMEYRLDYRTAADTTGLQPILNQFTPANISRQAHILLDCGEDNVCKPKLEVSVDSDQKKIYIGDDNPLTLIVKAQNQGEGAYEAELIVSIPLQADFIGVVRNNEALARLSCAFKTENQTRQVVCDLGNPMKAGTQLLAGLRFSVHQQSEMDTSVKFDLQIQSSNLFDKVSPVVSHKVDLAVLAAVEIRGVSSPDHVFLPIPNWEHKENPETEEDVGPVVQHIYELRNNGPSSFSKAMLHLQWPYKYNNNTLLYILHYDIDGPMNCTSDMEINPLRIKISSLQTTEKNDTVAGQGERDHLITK
# T2 sequence (P06756 891-1048 partner limits assumed): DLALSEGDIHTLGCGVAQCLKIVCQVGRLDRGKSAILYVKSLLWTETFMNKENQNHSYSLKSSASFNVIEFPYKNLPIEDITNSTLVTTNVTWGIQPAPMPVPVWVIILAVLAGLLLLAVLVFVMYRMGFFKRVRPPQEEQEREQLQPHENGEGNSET
# T2 sequence (P05106 27-788): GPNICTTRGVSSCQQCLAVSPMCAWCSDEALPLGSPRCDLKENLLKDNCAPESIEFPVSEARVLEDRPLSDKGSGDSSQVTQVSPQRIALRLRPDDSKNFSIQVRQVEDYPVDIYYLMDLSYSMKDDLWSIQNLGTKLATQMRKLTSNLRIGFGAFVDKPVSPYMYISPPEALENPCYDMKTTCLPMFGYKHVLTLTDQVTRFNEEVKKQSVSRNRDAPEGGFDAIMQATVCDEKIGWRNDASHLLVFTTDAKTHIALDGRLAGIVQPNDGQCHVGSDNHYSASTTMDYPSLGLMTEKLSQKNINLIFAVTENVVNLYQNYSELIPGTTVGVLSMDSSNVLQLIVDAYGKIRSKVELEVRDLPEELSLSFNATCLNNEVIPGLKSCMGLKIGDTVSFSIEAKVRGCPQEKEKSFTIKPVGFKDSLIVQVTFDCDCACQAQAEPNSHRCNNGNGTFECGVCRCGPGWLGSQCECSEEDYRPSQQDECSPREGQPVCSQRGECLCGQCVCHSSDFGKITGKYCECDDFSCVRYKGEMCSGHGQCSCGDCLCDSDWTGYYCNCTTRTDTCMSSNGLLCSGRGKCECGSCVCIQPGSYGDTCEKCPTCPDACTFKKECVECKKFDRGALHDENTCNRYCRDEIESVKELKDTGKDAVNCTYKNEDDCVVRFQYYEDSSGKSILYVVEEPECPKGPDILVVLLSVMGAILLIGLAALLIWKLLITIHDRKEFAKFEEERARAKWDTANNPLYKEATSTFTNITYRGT
# Experimental: αVβ3 integrin purification from HUVE cell lysates was done as described in Pytela et al., Meth. Enzynmol., 144:475-489 (1987). Briefly, 10^8 cells were lysed in 1 ml of PBS containing 1 mM CaCl2, 1 mM MgCl2, 0.5 mM PMSF and 100 mM octylglucoside. The lysate was passed four times through a 0.5 ml column containing RGDSPK Sepharose (prepared from the cyanogen bromide activated Sepharose CL 4B as described in Lam, S. C-T., J. Biol. Chem., 267:5649-5655 (1992). The column was washed with 10 ml of the lysis buffer and the bound protein was eluted with 2 ml of the same buffer containing 1 mM RGDS peptide at room temperature. The αVβ3 integrin was dialyzed against PBS containing 1 mM CaCl2, 1 mM MgCl2, 5 mM octylglucoside and 0.1 mM PMSF with three changes of the dialysis buffer to remove the RGDS peptide. The protein was stored in aliquots at −70° C. The purity of the integrin was determined by SDS-PAGE under non-reducing conditions, followed by silver staining.
# The integrin binding assay was developed in accordance with the disclosures in Brooks et al., Cell 85:683-693 (1996), and Lam, S. C-T (1992). Approximately 50 ng of the integrin in a total volume of 50 μl were added per well of 96-well immunological Pro-Bind plates (Falcon) and incubated overnight at 4° C. Non-specific sites were blocked with 20 mg/ml BSA in the same buffer and washed four times in that buffer. Treated plates were incubated with 1 μg/ml Cyr61 or 0.1 μg/ml vitronectin for 3 hours at room temperature. […] The final dilution of the LM609 ascites fluid was 1:200. Bound proteins were detected by specific polyclonal antisera (anti-Cyr61 antiserum was diluted 1:500 and anti-vitronectin antiserum was diluted 1:1000 in PBS containing 1 mM CaCl2, 1 mM MgCl2, and 5 mg/ml BSA) followed by a secondary antibody-horseradish peroxidase conjugate (1:20000 in the same buffer). […] Horseradish peroxidase (HRP) was detected with an HRP immunoassay kit (Bio-Rad Laboratories). The colorimetric reaction was developed for 15-30 minutes at room temperature, stopped by the addition of H2SO4, and the absorbance at 450 nm was measured. […]
# [1] = system: 1064SK primary human foreskin fibroblasts; experiment: Fibroblast adhesion assay (methylene blue, A620); assay type: cell-based
# Experimental: The ability of Cyr61 to mediate cell adhesion in normal fibroblasts was investigated. Microtiter wells were coated with purified recombinant Cyr61 protein, and 1064SK primary human foreskin fibroblasts were allowed to adhere under serum-free conditions. […] 50 μl cell suspensions were plated on microtiter wells coated with varying concentrations (0.5-5.0 μg/ml) of Cyr61 protein. After incubation at 37° C. for 30 minutes, adherent cells were fixed and stained with methylene blue.
# In another experiment, microtiter wells were coated with either BSA, Cyr61 (2 μg/ml), or vitronectin (VN; 0.5 μg/ml) and blocked with affinity-purified anti-Cyr61 antibodies for one hour at 37° C. before 1064SK cells were plated.
# The effects of divalent cations in cell adhesion to Cyr61 was also investigated. […] Data are means from triplicate determinations. […] Inhibition by Ca^2+ is characteristic of adhesion through some members of the β1 family of integrins, including receptors that bind type I collagen, laminin, and vitronectin (integrins α2β1, α6β1, and αVβ1) in fibroblasts, as well as the lymphocyte-specific integrin αLβ2.
# The effects of RGD peptides on Cyr61-mediated fibroblast binding was tested by plating cells in wells coated with Cyr61 (2 μg/ml). Type I collagen (2 μg/ml) or vitronectin (0.5 μg/ml), 2 mM GRGDSP or GRGESP peptide was then added.
# Cells were also pre-incubated with 40 μg/ml monoclonal antibodies against the integrin α5 or the integrin αV subunits at room temperature for 30 minutes, then plated on wells coated with Cyr61 (2 μg/ml), vitronectin (0.5 μg/ml) or fibronectin (FN, 1 μg/ml). […] The data are means, representative of three experiments.
# The 1064 SK cells were also analyzed using the monoclonal antibody JBIA, which binds the β1 integrin subunit. Cells were pre-incubated with the antibody (50 μg/ml) before plating on microtiter wells coated with Cyr61 (2 μg/ml), Type I collagen (2 μg/ml), or vitronectin (0.5 μg/ml). […] Data are means, representative of three experiments.
# To identify the specific β1 integrin that mediates fibroblast adhesion to Cyr61, the inhibitory effects of function-blocking monoclonal antibodies were tested against various integrin α subunits. […] The data are means, representative of at least three experiments.
# Limb mesenchymal cells [2] = experiment: Limb bud mesenchymal cell attachment; assay type: cell-based, mouse; settings: within 1 hour of plating
# Experimental: Cyr61, fibronectin (Gibco), or tenascin (Gibco) were diluted in 0.1% protease-free bovine serum albumin (BSA) in PBS with 0.5 mM PMSF, to a final concentrations of 10 or 50 μg/ml. A 10 μl drop/well was placed in a non-tissue culture treated 24-well plate (Corning), and incubated at room temperature for 2 hours. The wells were blocked with 1% BSA in PBS for 1 hour at room temperature, and rinsed with serum-free MEM (Modified Eagle's Medium). Limb mesenchymal cells, suspended at 5×10^5 cell/ml in serum-free MEM, were added at a volume of 400 μl/well, and incubated at 37° C., 5% CO2 for 1 or 3 hours. At each time point, the cell suspension was removed, the wells were rinsed with MEM and the remaining adherent cells were photographed.
# Limb mesenchymal cells [3] = settings: 50 μg/ml (200 nM), literature; cited from earlier work
# HUVE cells = experiment: Fisp12 cell attachment assay, HUVE cells; assay type: cell-based, human; settings: EDTA added to culture medium; cell type not stated
# Experimental: The capacity of Fisp12 to affect cell adhesion was also investigated. Fisp12 cell attachment assays were performed essentially as described (Oliver et al., [1989]). 96-well immunological plates were coated for 16 hours at 4° C. with 20 μg/ml Cyr61, Fisp12 or fibronectim (Gibco BRL) in PBS containing 0.1 mg/ml BSA and blocked with 10 mg/ml BSA for 1 hour at room temperature. HUVE cells were plated at 10^4 cells/well in F12K media with 10% FBS (Hyclone Laboratories, Inc., Logan, Utah); NIH 3T3 fibroblasts were plated at 3×10^4 cells/well and Mv1Lu cells were plated at 5×10^4 cells/well in minimal essential medium (MEM) with 10% FBS. After 1 hour incubation cells were fixed, stained with methylene blue and quantified as described (Oliver et al., [1989]). Cell spreading was examined on cells plated on 100 mm polystyrene petri dishes coated with 2.5 ml of a 20 μg/ml solution of Cyr61, Fisp12 or fibronectin. 10^7 cells were plated on each dish and cell spreading was analyzed 90 minutes after plating by microscopy at 100× magnification.
# [4] = EDTA 5 mM, RGDS 0.5 mM, LM609 ascites 1:200
Molecule,effect of agent on activated platelet adhesion to Cyr61 and Fisp12/mCTGF (platelets),effect of agent on adhesion of ADP-activated platelets to fibrinogen (platelets),effect of agent on activated αllbβ3 binding to Fisp12/mCTGF and Cyr61 (αllbβ3),also measured
echistatin,completely blocked platelet adhesion to both proteins,completely inhibited,effectively inhibited,
H-HHLGGAKQAGDV-OH [H12],inhibited platelet adhesion to Cyr61 and Fisp12/mCTGF,completely inhibited,effectively inhibited,
"vitronectin: Human plasma vitronectin, serum spreading factor",,,,binding to immobilized αVβ3 integrin (αVβ3 integrin; 1 μg/ml Cyr61 or 0.1 μg/ml vitronectin): bound to the immobilized integrin; inhibition by anti-α6 antibody of binding mediated by the coated protein ([1]; anti-α6 20 μg/ml): 9%
tenascin: ECM protein (Gibco),,,,attachment morphology of limb mesenchymal cells (Limb mesenchymal cells [2]): adhered as clusters of rounded cells; increase of chondrogenesis in micromass cultures (Limb mesenchymal cells [3]): 3 fold
"O=C(O)CN(CCN(CC(=O)O)CC(=O)O)CC(=O)O [EDTA, Ethylenediamine tetraacetic acid]",completely abolished platelet adhesion to both proteins,completely inhibited,,"effect of agent on Fisp12-mediated cell attachment (HUVE cells): inhibited; 1064SK adhesion to Cyr61-coated wells with agent ([1]; Cyr61 2 μg/ml, agent at the level stated in the block, Mg2+ 5.0 mM after EDTA): about 0.12 A620; 1064SK adhesion to Type I collagen-coated wells with agent ([1]; Type I collagen 2 μg/ml): 0.10 A620; 1064SK adhesion to vitronectin-coated wells with agent ([1]; vitronectin 0.5 μg/ml): 0.05 A620"
RGDS,,completely inhibited,specifically blocked,effect of agent on Cyr61 interaction with αVβ3 (αVβ3 integrin; [4]): inhibited; effect of agent on vitronectin interaction with αVβ3 (αVβ3 integrin; [4]): inhibited
